Test system: NCI-H1876 complex spheroid growth, % test/control
Assay: Anticancer human tumor NCI-H1876 cell line growth inhibition [Asc];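 further: compound exposure lasted 7 days starting three days after seeding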;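 on viability, T/C: 100% = DMSO vehicle control wells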
Conditions: for IC50: curve of first compound; for viability, T/C: stronger effect = lower value
Method in brief: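 Tumor cells were grown as complex spheroids with human endothelial cells (HUVEC) and human mesenchymal stem cells as stroma. Agents were tested alone and in combination, in half-log steps down from the clinical Cmax, or from 10 microM where Cmax was unknown.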

[1] = second compound 0.00316 µM, first compound 0.00316 µM
[2] = second compound 0.00316 µM, first compound 0.01 µM
[3] = second compound 0.00316 µM, first compound 0.0316 µM
[4] = second compound 0.00316 µM, first compound 0.1 µM
[5] = second compound 0.00316 µM, first compound 0.316 µM
[6] = second compound 0.00316 µM, first compound 1 µM
[7] = second compound 0.01 µM, first compound 0.00316 µM
[8] = second compound 0.01 µM, first compound 0.01 µM
[9] = second compound 0.01 µM, first compound 0.0316 µM
[10] = second compound 0.01 µM, first compound 0.1 µM
[11] = second compound 0.01 µM, first compound 0.316 µM
[12] = second compound 0.01 µM, first compound 1 µM
[13] = second compound 0.0316 µM, first compound 0.00316 µM
[14] = second compound 0.0316 µM, first compound 0.01 µM
[15] = second compound 0.0316 µM, first compound 0.0316 µM
[16] = second compound 0.0316 µM, first compound 0.1 µM
[17] = second compound 0.0316 µM, first compound 0.316 µM
[18] = second compound 0.0316 µM, first compound 1 µM
[19] = second compound 0.1 µM, first compound 0.00316 µM
[20] = second compound 0.1 µM, first compound 0.01 µM
[21] = second compound 0.1 µM, first compound 0.0316 µM
[22] = second compound 0.1 µM, first compound 0.1 µM
[23] = second compound 0.1 µM, first compound 0.316 µM
[24] = second compound 0.1 µM, first compound 1 µM
[25] = second compound 0.316 µM, first compound 0.00316 µM
[26] = second compound 0.316 µM, first compound 0.01 µM
[27] = second compound 0.316 µM, first compound 0.0316 µM
[28] = second compound 0.316 µM, first compound 0.1 µM
[29] = second compound 0.316 µM, first compound 0.316 µM
[30] = second compound 0.316 µM, first compound 1 µM
[31] = second compound 1 µM, first compound 0.00316 µM
[32] = second compound 1 µM, first compound 0.01 µM
[33] = second compound 1 µM, first compound 0.0316 µM
[34] = second compound 1 µM, first compound 0.1 µM
[35] = second compound 1 µM, first compound 0.316 µM
[36] = second compound 1 µM, first compound 1 µM

CCN1CCN(Cc2ccc(Nc3ncc(F)c(-c4cc(F)c5nc(C)n(C(C)C)c5c4)n3)nc2)CC1 + CNC(C)C(=O)NC1CN(S(=O)(=O)c2cccc(S(=O)(=O)N3CCC4CCC(C(=O)NC(c5ccccc5)c5ccccc5)N4C(=O)C(NC(=O)C(C)NC)C3)c2)CCC2CCC(C(=O)NC(c3ccccc3)c3ccccc3)N2C1=O
IC50 (second compound 0.00316 µM): > 1000 nM | IC50 (second compound 0.01 µM): > 1000 nM | IC50 (second compound 0.0316 µM): > 1000 nM | IC50 (second compound 0.1 µM): > 1000 nM | IC50 (second compound 0.316 µM): > 1000 nM | IC50 (second compound 1 µM): > 1000 nM | viability, T/C [1]: 104% | viability, T/C [2]: 89.2% | viability, T/C [3]: 103% | viability, T/C [4]: 93.9% | viability, T/C [5]: 125% | viability, T/C [6]: 128% | viability, T/C [7]: 105% | viability, T/C [8]: 104% | viability, T/C [9]: 102% | viability, T/C [10]: 99.8% | viability, T/C [11]: 126% | viability, T/C [12]: 132% | viability, T/C [13]: 105% | viability, T/C [14]: 93.1% | viability, T/C [15]: 102% | viability, T/C [16]: 108% | viability, T/C [17]: 129% | viability, T/C [18]: 136% | viability, T/C [19]: 100% | viability, T/C [20]: 102% | viability, T/C [21]: 104% | viability, T/C [22]: 109% | viability, T/C [23]: 118% | viability, T/C [24]: 131% | viability, T/C [25]: 110% | viability, T/C [26]: 93.1% | viability, T/C [27]: 101% | viability, T/C [28]: 104% | viability, T/C [29]: 126% | viability, T/C [30]: 140% | viability, T/C [31]: 102% | viability, T/C [32]: 105% | viability, T/C [33]: 109% | viability, T/C [34]: 107% | viability, T/C [35]: 129% | viability, T/C [36]: 122%

Cn1ncnc1[C@H]1c2n[nH]c(=O)c3cc(F)cc(c23)N[C@@H]1c1ccc(F)cc1 + CNC(C)C(=O)NC1CN(S(=O)(=O)c2cccc(S(=O)(=O)N3CCC4CCC(C(=O)NC(c5ccccc5)c5ccccc5)N4C(=O)C(NC(=O)C(C)NC)C3)c2)CCC2CCC(C(=O)NC(c3ccccc3)c3ccccc3)N2C1=O
IC50 (second compound 0.00316 µM): > 100 nM | IC50 (second compound 0.01 µM): > 100 nM | IC50 (second compound 0.0316 µM): > 100 nM | IC50 (second compound 0.1 µM): > 100 nM | IC50 (second compound 0.316 µM): > 100 nM | IC50 (second compound 1 µM): > 100 nM | viability, T/C (second compound 0.00316 µM, first compound 0.000316 µM): 72.3% | viability, T/C (second compound 0.00316 µM, first compound 0.001 µM): 63.5% | viability, T/C [1]: 68.2% | viability, T/C [2]: 55.5% | viability, T/C [3]: 51.2% | viability, T/C [4]: 54.3% | viability, T/C (second compound 0.01 µM, first compound 0.000316 µM): 92.8% | viability, T/C (second compound 0.01 µM, first compound 0.001 µM): 103% | viability, T/C [7]: 87.6% | viability, T/C [8]: 95.2% | viability, T/C [9]: 96.5% | viability, T/C [10]: 95.8% | viability, T/C (second compound 0.0316 µM, first compound 0.000316 µM): 94.8% | viability, T/C (second compound 0.0316 µM, first compound 0.001 µM): 99% | viability, T/C [13]: 104% | viability, T/C [14]: 112% | viability, T/C [15]: 109% | viability, T/C [16]: 103% | viability, T/C (second compound 0.1 µM, first compound 0.000316 µM): 105% | viability, T/C (second compound 0.1 µM, first compound 0.001 µM): 102% | viability, T/C [19]: 97.3% | viability, T/C [20]: 91.5% | viability, T/C [21]: 97.4% | viability, T/C [22]: 102% | viability, T/C (second compound 0.316 µM, first compound 0.000316 µM): 97.7% | viability, T/C (second compound 0.316 µM, first compound 0.001 µM): 96.7% | viability, T/C [25]: 93.4% | viability, T/C [26]: 110% | viability, T/C [27]: 115% | viability, T/C [28]: 97.3% | viability, T/C (second compound 1 µM, first compound 0.000316 µM): 114% | viability, T/C (second compound 1 µM, first compound 0.001 µM): 99.1% | viability, T/C [31]: 90.1% | viability, T/C [32]: 116% | viability, T/C [33]: 103% | viability, T/C [34]: 104%

O=C(c1ccc(F)c(F)c1Nc1ccc(I)cc1F)N1CC(O)([C@@H]2CCCCN2)C1 + CNC(C)C(=O)NC1CN(S(=O)(=O)c2cccc(S(=O)(=O)N3CCC4CCC(C(=O)NC(c5ccccc5)c5ccccc5)N4C(=O)C(NC(=O)C(C)NC)C3)c2)CCC2CCC(C(=O)NC(c3ccccc3)c3ccccc3)N2C1=O
IC50 (second compound 0.00316 µM): > 1000 nM | IC50 (second compound 0.01 µM): > 1000 nM | IC50 (second compound 0.0316 µM): > 1000 nM | IC50 (second compound 0.1 µM): > 1000 nM | IC50 (second compound 0.316 µM): > 1000 nM | IC50 (second compound 1 µM): > 1000 nM | viability, T/C [1]: 109% | viability, T/C [2]: 87.3% | viability, T/C [3]: 114% | viability, T/C [4]: 80.5% | viability, T/C [5]: 80.5% | viability, T/C [6]: 70.6% | viability, T/C [7]: 110% | viability, T/C [8]: 93.6% | viability, T/C [9]: 96.2% | viability, T/C [10]: 82.3% | viability, T/C [11]: 90.8% | viability, T/C [12]: 81.7% | viability, T/C [13]: 98.5% | viability, T/C [14]: 90.3% | viability, T/C [15]: 102% | viability, T/C [16]: 87.3% | viability, T/C [17]: 85.5% | viability, T/C [18]: 83.2% | viability, T/C [19]: 106% | viability, T/C [20]: 103% | viability, T/C [21]: 96.3% | viability, T/C [22]: 89.8% | viability, T/C [23]: 86.3% | viability, T/C [24]: 90.5% | viability, T/C [25]: 106% | viability, T/C [26]: 90.1% | viability, T/C [27]: 89.9% | viability, T/C [28]: 96.9% | viability, T/C [29]: 97% | viability, T/C [30]: 72.3% | viability, T/C [31]: 107% | viability, T/C [32]: 93.7% | viability, T/C [33]: 99.2% | viability, T/C [34]: 97.4% | viability, T/C [35]: 88% | viability, T/C [36]: 69.8%

From PubChem BioAssay AID1963441 (Molecular Pharmacology Branch, DTP, NCI, 2024)
